Measured values taken from PubChem BioAssay AID1963848 (Molecular Pharmacology Branch, DTP, NCI, 2024).

Tested on: 379773-124-R-J2-PDC spheroid viability
Assay: Anticancer human tumor 379773-124-R-J2-PDC patient-derived endometrial carcinoma cell line growth inhibition [POLQ]
Conditions: spheroids with HUVEC and MSC; for IC50: curve of first compound; for viability, T/C: stronger effect = lower value
Outline: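 Patient-derived tumour cells were co-cultured with HUVEC and mesenchymal stem cells as multicellular spheroids at 37 °C. They were treated with POLQ inhibitors (novobiocin, ART-558, RP6685) alone or combined with other agents. Top concentrations were at or near clinical Cmax (otherwise 10 microM; SN-38 at 1 microM), decreasing in half-log steps.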

[1] = second compound 0.0316 µM, first compound 0.0316 µM
[2] = second compound 0.0316 µM, first compound 0.1 µM
[3] = second compound 0.0316 µM, first compound 0.316 µM
[4] = second compound 0.0316 µM, first compound 1 µM
[5] = second compound 0.0316 µM, first compound 3.16 µM
[6] = second compound 0.0316 µM, first compound 10 µM
[7] = second compound 0.1 µM, first compound 0.0316 µM
[8] = second compound 0.1 µM, first compound 0.1 µM
[9] = second compound 0.1 µM, first compound 0.316 µM
[10] = second compound 0.1 µM, first compound 1 µM
[11] = second compound 0.1 µM, first compound 3.16 µM
[12] = second compound 0.1 µM, first compound 10 µM
[13] = second compound 0.316 µM, first compound 0.0316 µM
[14] = second compound 0.316 µM, first compound 0.1 µM
[15] = second compound 0.316 µM, first compound 0.316 µM
[16] = second compound 0.316 µM, first compound 1 µM
[17] = second compound 0.316 µM, first compound 3.16 µM
[18] = second compound 0.316 µM, first compound 10 µM
[19] = second compound 1 µM, first compound 0.0316 µM
[20] = second compound 1 µM, first compound 0.1 µM
[21] = second compound 1 µM, first compound 0.316 µM
[22] = second compound 1 µM, first compound 1 µM
[23] = second compound 1 µM, first compound 3.16 µM
[24] = second compound 1 µM, first compound 10 µM
[25] = second compound 3.16 µM, first compound 0.0316 µM
[26] = second compound 3.16 µM, first compound 0.1 µM
[27] = second compound 3.16 µM, first compound 0.316 µM
[28] = second compound 3.16 µM, first compound 1 µM
[29] = second compound 3.16 µM, first compound 3.16 µM
[30] = second compound 3.16 µM, first compound 10 µM
[31] = second compound 10 µM, first compound 0.0316 µM
[32] = second compound 10 µM, first compound 0.1 µM
[33] = second compound 10 µM, first compound 0.316 µM
[34] = second compound 10 µM, first compound 1 µM
[35] = second compound 10 µM, first compound 3.16 µM
[36] = second compound 10 µM, first compound 10 µM
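Note: spheroids exposed to drugs for seven days before readout.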
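Throughout, for viability, T/C: percent viability relative to DMSO vehicle control taken as 100%.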

With `C=CC(=O)N1CCN(c2nc(=O)n(-c3c(C)ccnc3C(C)C)c3nc(-c4c(O)cccc4F)c(F)cc23)C(C)C1` (stereo unspecified) + Nc1ccc(C#CCN(C(=O)Cc2ncc(C(F)(F)F)cc2C(F)(F)F)c2ccc(F)cc2)nn1 the IC50 (second compound 0.0316 µM) was > 10 µM, the IC50 (second compound 0.1 µM) was > 10 µM and the IC50 (second compound 0.316 µM) was > 10 µM. For the same compound, the IC50 (second compound 1 µM) was > 10 µM, the IC50 (second compound 3.16 µM) was > 10 µM and the IC50 (second compound 10 µM) was > 10 µM. For the same compound, the viability, T/C [1] was 102%, the viability, T/C [2] was 91.5% and the viability, T/C [3] was 103%. The viability, T/C [4] was 94.7%, the viability, T/C [5] was 114% and the viability, T/C [6] was 96.1%. For the same compound, the viability, T/C [7] was 90%, the viability, T/C [8] was 89.1% and the viability, T/C [9] was 104%. For the same compound, the viability, T/C [10] was 98.7%, the viability, T/C [11] was 92% and the viability, T/C [12] was 91.7%. The viability, T/C [13] was 95.4%, the viability, T/C [14] was 93.5% and the viability, T/C [15] was 90.2%. The viability, T/C [16] was 86.4%, the viability, T/C [17] was 94.1% and the viability, T/C [18] was 100%. The viability, T/C [19] was 89.2%, the viability, T/C [20] was 85.5% and the viability, T/C [21] was 99.6%. The viability, T/C [22] was 93%, the viability, T/C [23] was 98.8% and the viability, T/C [24] was 103%. The viability, T/C [25] was 91.9%, the viability, T/C [26] was 90.9% and the viability, T/C [27] was 101%. For the same compound, the viability, T/C [28] was 90.3%, the viability, T/C [29] was 95% and the viability, T/C [30] was 93.3%. The viability, T/C [31] was 88.3%, the viability, T/C [32] was 91.4% and the viability, T/C [33] was 93.3%. The viability, T/C [34] was 91.4%, the viability, T/C [35] was 94.9% and the viability, T/C [36] was 98.2%.
`CC1COCCN1c1cc(-c2ccnn2C)c2ccnc(-c3ccn[nH]3)c2n1` (stereo unspecified) + Nc1ccc(C#CCN(C(=O)Cc2ncc(C(F)(F)F)cc2C(F)(F)F)c2ccc(F)cc2)nn1 showed an IC50 (second compound 0.0316 µM) of 0.12 µM, an IC50 (second compound 0.1 µM) of 0.133 µM and an IC50 (second compound 0.316 µM) of 0.114 µM. The IC50 (second compound 1 µM) was 0.13 µM, the IC50 (second compound 3.16 µM) was 0.135 µM and the IC50 (second compound 10 µM) was 0.142 µM. It also gave a viability, T/C [1] of 89.5%, a viability, T/C [2] of 56.8% and a viability, T/C [3] of 13.7%. For the same compound, the viability, T/C [4] was 11.4%, the viability, T/C [5] was 12% and the viability, T/C [6] was 6.24%. It also gave a viability, T/C [7] of 89.5%, a viability, T/C [8] of 61.2% and a viability, T/C [9] of 15.6%. The viability, T/C [10] was 11.1%, the viability, T/C [11] was 12.2% and the viability, T/C [12] was 8.99%. The viability, T/C [13] was 90.6%, the viability, T/C [14] was 54.3% and the viability, T/C [15] was 16.2%. For the same compound, the viability, T/C [16] was 11.5%, the viability, T/C [17] was 12.7% and the viability, T/C [18] was 7.88%. It also gave a viability, T/C [19] of 93.2%, a viability, T/C [20] of 60.6% and a viability, T/C [21] of 13.9%. The viability, T/C [22] was 9.22%, the viability, T/C [23] was 12.6% and the viability, T/C [24] was 9.58%. It also gave a viability, T/C [25] of 91.4%, a viability, T/C [26] of 62.9% and a viability, T/C [27] of 13%. It also gave a viability, T/C [28] of 10.6%, a viability, T/C [29] of 10.9% and a viability, T/C [30] of 7.43%. The viability, T/C [31] was 80.1%, the viability, T/C [32] was 64.2% and the viability, T/C [33] was 17.7%. The viability, T/C [34] was 8.24%, the viability, T/C [35] was 12.3% and the viability, T/C [36] was 8.65%.
Work on `COc1ccc([C@@H](O)c2cc(-c3ncnc4cc(N5CCOCC5)ccc34)c(F)cc2Cl)nn1` + Nc1ccc(C#CCN(C(=O)Cc2ncc(C(F)(F)F)cc2C(F)(F)F)c2ccc(F)cc2)nn1 yielded an IC50 (second compound 0.0316 µM) of 9.88 µM, an IC50 (second compound 0.1 µM) of 7.66 µM and an IC50 (second compound 0.316 µM) of 7.78 µM. The IC50 (second compound 1 µM) was 9.09 µM, the IC50 (second compound 3.16 µM) was 7.08 µM and the IC50 (second compound 10 µM) was 8.7 µM. For the same compound, the viability, T/C [1] was 98.9%, the viability, T/C [2] was 104% and the viability, T/C [3] was 101%. It also gave a viability, T/C [4] of 83.8%, a viability, T/C [5] of 89.1% and a viability, T/C [6] of 48.4%. The viability, T/C [7] was 90.3%, the viability, T/C [8] was 104% and the viability, T/C [9] was 89.6%. For the same compound, the viability, T/C [10] was 95.2%, the viability, T/C [11] was 77% and the viability, T/C [12] was 41.6%. It also gave a viability, T/C [13] of 98.4%, a viability, T/C [14] of 96.2% and a viability, T/C [15] of 99.3%. It also gave a viability, T/C [16] of 91.4%, a viability, T/C [17] of 105% and a viability, T/C [18] of 36.7%. The viability, T/C [19] was 97.4%, the viability, T/C [20] was 83.9% and the viability, T/C [21] was 85.6%. For the same compound, the viability, T/C [22] was 99.9%, the viability, T/C [23] was 79.5% and the viability, T/C [24] was 47.4%. For the same compound, the viability, T/C [25] was 91.8%, the viability, T/C [26] was 92.1% and the viability, T/C [27] was 82.6%. The viability, T/C [28] was 90.3%, the viability, T/C [29] was 76.4% and the viability, T/C [30] was 38.8%. For the same compound, the viability, T/C [31] was 90.8%, the viability, T/C [32] was 87% and the viability, T/C [33] was 87.8%. For the same compound, the viability, T/C [34] was 85.9%, the viability, T/C [35] was 105% and the viability, T/C [36] was 44.2%.
